# Experimental data reported in patent US10190168B2, “Method for predicting a treatment response to a CRHR1 antagonist and/or a V1B antagonist in a patient with depressive and/or anxiety symptoms” (MAX-PLANCK-GESELLSCHAFT ZUR FÖRDERUNG DER WISSENSCHAFTEN …, priority 2013, dated 2019).
# What was measured:
# Cor26 CRH mice = assay: REMS levels (EEG/EMG sleep recording) in CRH-overexpressing Cor26 CRH mice; conditions: 50 mg/kg/d via drinking water
# Protocol: (§1) Experiments were conducted with two different mouse lines of excessive central CRH secretion and their respective control littermates (CL). Mice of the CRH-COE^CNS line are characterised by CRH-overexpression within the whole CNS, whereas mice of the Cor26 CRH line display a CRH-overexpression specific to CRH-ergic neurons of the CNS. Three different CRHR1 antagonists were tested. […] In all cases, animals were left to recover from EEG/EMG-electrode implantation for two weeks, after which two days of baseline recording were initiated. Treatment with CRH-R1 antagonist or respective vehicle control commenced thereafter for five consecutive days. Antagonists were applied through the drinking water at a daily dose of 50 mg/kg body weight. EEG and EMG recordings were manually scored as wake, non-REMS (NREMS), and REMS in four second epochs by an experienced evaluator.
# [1] = test system: control littermates (CL) of Cor26 CRH mice; assay: REMS levels (EEG/EMG sleep recording) in control littermates of the Cor26 CRH line; conditions: 50 mg/kg/d via drinking water
# Protocol: as §1
# CRH-COE^CNS mice = assay: REMS activity (EEG/EMG sleep recording) in CRH-overexpressing CRH-COE^CNS mice; conditions: 50 mg/kg/d via drinking water; for REMS activity: treatment days vs baseline, effect beginning with treatment day two
# Protocol: as §1
# [2] = test system: control littermates (CL) of CRH-COE^CNS mice; assay: REMS activity (EEG/EMG sleep recording) in control littermates of the CRH-COE^CNS line; conditions: 50 mg/kg/d via drinking water
# Protocol: as §1
# [3] = test system: mice overexpressing CRH in the forebrain; conditions: Kimura et al., Mol. Psychiatry 2010; cited from earlier work
Structure (SMILES),REMS levels (Cor26 CRH mice; 50 mg/kg/day),"REMS levels (Cor26 CRH mice; listed as CP-316311, 50 mg/kg/day)","REMS levels, area under the curve (AUC) within the light period (Cor26 CRH mice; baseline vs treatment day three, P=0.006)",REMS levels [1],REMS suppression relative to baseline REMS-levels of CL (CRH-COE^CNS mice),treatment day of strongest suppression of REMS activity (CRH-COE^CNS mice),REMS activity (CRH-COE^CNS mice; 50 mg/kg/day),"REMS activity (CRH-COE^CNS mice; listed as DMP696, 50 mg/kg/day)",REMS activity [2],REM enhancement [3]
"CCC(CC)Oc1cc(C)nc(Oc2c(C)cc(C)cc2C)c1C [CP-316,311]",apparently seemed weak,suppressed,significant decrease,no significant effect,,,,,,
COCC(COC)Nc1nc(C)nc2c(-c3ccc(Cl)cc3Cl)c(C)nn12 [DMP-696],,,,,never exceeded baseline REMS-levels of CL,treatment day three,significant decrease in REMS activity,suppressed,only a mild suppression of REMS,could reverse the REM enhancement
